One assay deals with T1, FLT3 (Homo sapiens, UniProt P36888).
T1 construct: purchased ThermoFisher PV3182
T1 sequence (P36888 27-993): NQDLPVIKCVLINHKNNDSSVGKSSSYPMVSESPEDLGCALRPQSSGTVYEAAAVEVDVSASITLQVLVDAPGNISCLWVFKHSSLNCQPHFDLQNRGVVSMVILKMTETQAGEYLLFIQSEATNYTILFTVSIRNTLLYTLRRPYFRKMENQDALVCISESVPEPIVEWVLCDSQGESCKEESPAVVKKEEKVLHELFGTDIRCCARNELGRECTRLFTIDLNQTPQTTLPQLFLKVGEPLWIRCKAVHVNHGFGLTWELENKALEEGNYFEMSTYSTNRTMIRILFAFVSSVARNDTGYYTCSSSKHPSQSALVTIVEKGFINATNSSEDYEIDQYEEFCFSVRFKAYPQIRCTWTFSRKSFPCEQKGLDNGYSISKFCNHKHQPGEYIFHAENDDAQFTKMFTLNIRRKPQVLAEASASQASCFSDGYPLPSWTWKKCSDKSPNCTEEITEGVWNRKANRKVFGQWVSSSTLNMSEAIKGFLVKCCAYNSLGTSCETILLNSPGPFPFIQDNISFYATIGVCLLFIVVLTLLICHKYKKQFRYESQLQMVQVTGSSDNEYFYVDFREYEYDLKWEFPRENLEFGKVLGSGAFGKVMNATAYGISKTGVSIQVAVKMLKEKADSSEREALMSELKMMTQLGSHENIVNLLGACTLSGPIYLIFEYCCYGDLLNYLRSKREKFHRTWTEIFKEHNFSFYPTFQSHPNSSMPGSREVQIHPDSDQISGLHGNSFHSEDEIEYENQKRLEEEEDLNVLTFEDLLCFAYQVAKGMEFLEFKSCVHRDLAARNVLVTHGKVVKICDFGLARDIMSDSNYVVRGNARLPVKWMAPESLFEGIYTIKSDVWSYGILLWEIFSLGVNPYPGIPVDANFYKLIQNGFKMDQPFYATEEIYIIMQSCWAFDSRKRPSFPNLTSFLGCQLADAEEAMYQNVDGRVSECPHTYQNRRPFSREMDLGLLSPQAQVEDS
The experiment in a line: Caliper mobility shift kinase inhibition assay, recombinant FLT3. The assay is classed as biochemical. The note with it: recombinant FLT-3 0.1 nM, ATP 95 μM, incubation 3 hr, room temperature. On the procedure:
Compounds' inhibition of recombinant kinases (FLT3, KIT) was measured using Caliper mobility shift assay, which is based on the difference in capillary electrophoresis mobility of a fluorescent-tagged peptide as a result of a phosphorylation by the kinase under study. Reactions were started by the addition of various concentrations of a compound (originally in DMSO solution) to a kinase solution in assay buffer followed by addition of a mixture of ATP and a fluorescent-tagged peptide substrate in assay buffer. Concentrations of the enzyme, ATP and thepeptide were pre-optimized so that 15% substrate conversion to ensure initial velocity measurements. After incubation for 3 hours at room temperature, the kinase reaction was quenched by the addition of a concentrated EDTA solution before analysis on a LabChip EZ Reader II to yield percentage inhibition by comparing to the DMSO control. Table 2 below summarizes the assay conditions for the characterization of the kinase inhibition properties of the disclosed compounds.

For a further assay, the target named is T2, KIT (Homo sapiens, UniProt P10721).
T2 construct: purchased BPS 40250
The experiment in a line: Caliper mobility shift kinase inhibition assay, recombinant KIT. The assay is classed as biochemical. Conditions: recombinant KIT 0.9 nM, ATP 400 μM, incubation 17 hr (Table 2).

The test system of a further assay is MV4-11. The experiment in a line: Cell viability assay (CellTiter-Glo), FLT3 cell-based assay. The note with it: Homo sapiens, MV4-11 cells, 72 hr at 37° C., 0.1% DMSO. The method, then:
Cell viability assay was performed based on the following brief procedures. Cells were plated at the density of 5K/well with volume of 180 μL in 96-well white plate and clear bottom plates. 20 μL of veh. or compound was added at proper concentration to the well. The final volume is 200 μL, with final conc. of DMSO=0.1%, 11 points, triplicates. The cells were then treated at 37° C. in the TC incubator for 72 hr. Equal volume (200 μL) of CellTiter-Glo reagent (Promega) was added to the well and protect from light at room temperature for 15 min. The chemiluminescence was measured with EnSight (Perkin Elmer). GraphPad Prism non-linear regression, Log[inhibitor] response with four parameters were used to calculate GI50.

18 compounds from patent US20250170107A1, “IMIDAZOPYRIDINE INHIBITORS OF TYROSINE KINASE” (BridGene Biosciences. Inc., priority 2022, published 2025) can be followed below.

pIC50: −log10 of the molar value.

T2 sequence (P10721 26-976): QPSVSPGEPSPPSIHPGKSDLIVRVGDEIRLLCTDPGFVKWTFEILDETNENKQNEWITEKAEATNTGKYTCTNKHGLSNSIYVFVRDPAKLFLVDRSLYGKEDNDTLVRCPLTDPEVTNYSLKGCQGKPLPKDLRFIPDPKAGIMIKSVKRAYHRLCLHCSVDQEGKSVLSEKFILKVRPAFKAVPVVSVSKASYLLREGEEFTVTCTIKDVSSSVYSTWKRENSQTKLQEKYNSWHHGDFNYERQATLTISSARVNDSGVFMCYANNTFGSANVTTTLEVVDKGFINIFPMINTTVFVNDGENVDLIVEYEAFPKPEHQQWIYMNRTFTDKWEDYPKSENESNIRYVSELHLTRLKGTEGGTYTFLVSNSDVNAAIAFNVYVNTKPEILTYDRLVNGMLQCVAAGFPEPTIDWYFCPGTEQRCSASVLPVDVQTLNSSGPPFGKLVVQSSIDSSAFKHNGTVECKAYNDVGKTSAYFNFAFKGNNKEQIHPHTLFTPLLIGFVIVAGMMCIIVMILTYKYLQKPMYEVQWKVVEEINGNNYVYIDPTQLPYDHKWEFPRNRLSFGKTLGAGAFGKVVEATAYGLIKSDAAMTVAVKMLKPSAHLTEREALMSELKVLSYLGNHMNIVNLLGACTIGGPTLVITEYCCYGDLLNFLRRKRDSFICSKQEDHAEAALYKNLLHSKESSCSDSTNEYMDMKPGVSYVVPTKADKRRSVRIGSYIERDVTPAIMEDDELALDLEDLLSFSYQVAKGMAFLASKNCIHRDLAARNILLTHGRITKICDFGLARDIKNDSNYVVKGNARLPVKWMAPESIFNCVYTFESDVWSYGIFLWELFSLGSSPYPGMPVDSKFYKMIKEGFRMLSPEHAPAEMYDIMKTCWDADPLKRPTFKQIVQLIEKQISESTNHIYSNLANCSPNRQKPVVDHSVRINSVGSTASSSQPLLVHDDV

What is called pIC50 is −log10 of the IC50, conventionally taken in molar units. The term GI50 denotes the concentration at which growth is held to half of that of the control. The low end stands for more potent growth inhibition, the high end for less potent growth inhibition. Take `C=CC(=O)N1CCOC[C@H]1C(=O)NCCn1cnc2cnc(Nc3ncc(-c4ccncc4)s3)cc21` [Example 1, (3S)-4-prop-2-enoyl-N-[2-[6-[[5-(4-pyridyl)thiazol-2-yl]amino]imidazo[4,5-c]pyridin-1-yl]ethyl]morpholine-3-carboxamide]: the pIC50 at FLT3 is above 9.00; on KIT, 8.00 to 9.00. In addition, the GI50 in the assay with MV4-11 is 0.01 to 0.1 µM.

`C/C=C\C(=O)N1CCC[C@H]1C(=O)NCCn1cnc2cnc(Nc3ncc(-c4ccc(F)cc4)s3)cc21` [Example 2, (2S)-1-[(Z)-but-2-enoyl]-N-[2-[6-[[5-(4-fluorophenyl)thiazol-2-yl]amino]imidazo[4,5-c]pyridin-1-yl]ethyl]pyrrolidine-2-carboxamide]: the pIC50 on FLT3 and at KIT was 8.00 to 9.00 in each case. Besides, the GI50 in the assay on MV4-11 is below 0.01 µM.

For `CN(C)C/C=C/C(=O)N1CCC[C@H]1C(=O)NCCn1cnc2cnc(Nc3ncc(-c4ccc(F)cc4)s3)cc21` [Example 3, (2S)-1-[(E)-4-(dimethylamino)but-2-enoyl]-N-[2-[6-[[5-(4-fluorophenyl)thiazol-2-yl]amino]imidazo[4,5-c]pyridin-1-yl]ethyl]pyrrolidine-2-carboxamide], the pIC50 was above 9.00 on FLT3 and 8.00 to 9.00 on KIT. This compound also returned a GI50 with MV4-11 of 0.01 to 0.1 µM.

In the case of `C=C(F)C(=O)N1CCC[C@H]1C(=O)NCCn1cnc2cnc(Nc3ncc(-c4ccc(F)cc4)s3)cc21` [Example 4], the pIC50 at FLT3 and at KIT was 8.00 to 9.00 throughout. The GI50 in the assay with MV4-11 was below 0.01 µM.

Consider `C=CC(=O)N1CCC[C@H]1C(=O)NCCn1cnc2cnc(Nc3ncc(-c4ccc(F)cc4)s3)cc21` [Example 5], for which the pIC50 at FLT3 and on KIT was above 9.00 throughout. Besides, the GI50 with MV4-11 was below 0.01 µM.

With `C=CC(=O)N1CCOC[C@H]1C(=O)NCCn1cnc2cnc(Nc3ncc(-c4ccc(F)cc4)s3)cc21` [Example 6, (3S)-N-[2-[6-[[5-(4-fluorophenyl)thiazol-2-yl]amino]imidazo[4,5-c]pyridin-1-yl]ethyl]-4-prop-2-enoyl-morpholine-3-carboxamide], the GI50 with MV4-11 is below 0.01 µM.

Turning to `C=CC(=O)N1CC[C@H]1C(=O)NCCn1cnc2cnc(Nc3ncc(-c4ncccc4F)s3)cc21` [Example 7, (2S)-N-[2-[6-[[5-(3-fluoro-2-pyridyl)thiazol-2-yl]amino]imidazo [4,5-c]pyridin-1-yl]ethyl]-1-prop-2-enoyl-azetidine-2-carboxamide], the pIC50 on FLT3 and at KIT was above 9.00 throughout.

On to `C=CC(=O)N1CCC[C@H]1C(=O)NCCn1cnc2cnc(Nc3ncc(-c4ccncc4F)s3)cc21` [Example 8, (2S)-N-[2-[6-[[5-(3-fluoro-4-pyridyl)thiazol-2-yl]amino]imidazo[4,5-c]pyridin-1-yl]ethyl]-1-prop-2-enoyl-pyrrolidine-2-carboxamide], for which the pIC50 at FLT3 and on KIT was above 9.00 throughout. Also, in the assay on MV4-11, the 50% growth inhibitory concentration (GI50) was below 0.01 µM.

As to `C=CC(=O)N1CCC[C@H]1C(=O)NCCn1cnc2cnc(Nc3ncc(-c4ncccc4F)s3)cc21` [Example 9, (2S)-N-[2-[6-[[5-(3-fluoro-2-pyridyl)thiazol-2-yl]amino]imidazo[4,5-c]pyridin-1-yl]ethyl]-1-prop-2-enoyl-pyrrolidine-2-carboxamide], the pIC50 at FLT3 and at KIT was above 9.00 in each case. Besides, in the assay on MV4-11, the GI50 is below 0.01 µM.

For the compound `C=C(F)C(=O)N1CCC[C@H]1C(=O)NCCn1cnc2cnc(Nc3ncc(-c4ncccc4F)s3)cc21` [Example 10], the pIC50 on FLT3 is 8.00 to 9.00; on KIT, 7.00 to 8.00. In the assay with MV4-11, this compound yielded a GI50 below 0.01 µM.

Regarding `C/C=C\C(=O)N1CCC[C@H]1C(=O)NCCn1cnc2cnc(Nc3ncc(-c4ncccc4F)s3)cc21` [Example 11, (2S)-1-[(Z)-but-2-enoyl]-N-[2-[6-[[5-(3-fluoro-2-pyridyl)thiazol-2-yl]amino]imidazo[4,5-c]pyridin-1-yl]ethyl]pyrrolidine-2-carboxamide], the figures for the pIC50 at FLT3 and at KIT were 8.00 to 9.00 and 6.00 to 7.00, respectively. In the assay with MV4-11, this compound displayed a GI50 of 0.01 to 0.1 µM.

For `C=CC(=O)N1CCOC[C@H]1C(=O)NCCn1cnc2cnc(Nc3ncc(-c4ncccc4F)s3)cc21` [Example 12, (3S)-N-[2-[6-[[5-(3-fluoro-2-pyridyl)thiazol-2-yl]amino]imidazo[4,5-c]pyridin-1-yl]ethyl]-4-prop-2-enoyl-morpholine-3-carboxamide], the pIC50 on FLT3 is above 9.00; on KIT it was 7.00 to 8.00. This compound showed a GI50 in the assay with MV4-11 below 0.01 µM.

As to `C=CC(=O)N1C[C@H](O)C[C@H]1C(=O)NCCn1cnc2cnc(Nc3ncc(-c4ccc(F)cc4)s3)cc21` [Example 13, (2S,4R)-N-[2-[6-[[5-(4-fluorophenyl)thiazol-2-yl]amino]imidazo[4,5-c]pyridin-1-yl]ethyl]-4-hydroxy-1-prop-2-enoylpyrrolidine-2-carboxamide], the pIC50 on FLT3 and at KIT was above 9.00 throughout. The same compound displayed a GI50 in the assay on MV4-11 of 0.01 to 0.1 µM.

Regarding `C=C(F)C(=O)N1CCOC[C@H]1C(=O)NCCn1cnc2cnc(Nc3ncc(-c4ncccc4F)s3)cc21` [Example 16, (3S)-4-(2-fluoroprop-2-enoyl)-N-[2-[6-[[5-(3-fluoro-2-pyridyl)thiazol-2-yl]amino]imidazo[4,5-c]pyridin-1-yl]ethyl]morpholine-3-carboxamide], the pIC50 on FLT3 and at KIT was 8.00 to 9.00 each time.

Consider `CN(C)C/C=C/C(=O)N1CCOC[C@H]1C(=O)NCCn1cnc2cnc(Nc3ncc(-c4ncccc4F)s3)cc21` [Example 17, (3S)-4-[(E)-4-(dimethylamino)but-2-enoyl]-N-[2-[6-[[5-(3-fluoro-2-pyridyl)thiazol-2-yl]amino]imidazo[4,5-c]pyridin-1-yl]ethyl]morpholine-3-carboxamide], for which the pIC50 on FLT3 and at KIT was above 9.00 in each case.

Turning to `C=CC(=O)N1C[C@H](O)C[C@H]1C(=O)NCCn1cnc2cnc(Nc3ncc(-c4ncccc4F)s3)cc21` [Example 18, (2S,4R)-N-[2-[6-[[5-(3-fluoro-2-pyridyl)thiazol-2-yl]amino]imidazo[4,5-c]pyridin-1-yl]ethyl]-4-hydroxy-1-prop-2-enoyl-pyrrolidine-2-carboxamide], the pIC50 at FLT3 is above 9.00; on KIT, 8.00 to 9.00.

For the compound `C=C(F)C(=O)N1C[C@H](O)C[C@H]1C(=O)NCCn1cnc2cnc(Nc3ncc(-c4ncccc4F)s3)cc21` [Example 19, (2S,4R)-1-(2-fluoroprop-2-enoyl)-N-[2-[6-[[5-(3-fluoro-2-pyridyl)thiazol-2-yl]amino]imidazo[4,5-c]pyridin-1-yl]ethyl]-4-hydroxy-pyrrolidine-2-carboxamide], the pIC50 was 8.00 to 9.00 on FLT3 and 7.00 to 8.00 on KIT.

Turning to `CN(C)C/C=C/C(=O)N1C[C@H](O)C[C@H]1C(=O)NCCn1cnc2cnc(Nc3ncc(-c4ncccc4F)s3)cc21` [Example 20, (2S,4R)-1-[(E)-4-(dimethylamino)but-2-enoyl]-N-[2-[6-[[5-(3-fluoro-2-pyridyl)thiazol-2-yl]amino]imidazo[4,5-c]pyridin-1-yl]ethyl]-4-hydroxy-pyrrolidine-2-carboxamide], the pIC50 on FLT3 and at KIT was above 9.00 throughout.
